Data on 26 compounds can be found in ChEMBL document CHEMBL1134419, “Solution-Phase parallel synthesis of 5-carboxamido 1-benzyl-3-(3-dimethylaminopropyloxy)-1H-pyrazoles as activators of soluble guanylate cyclase with improved oral bioavailability” (Bioorg Med Chem Lett, 2001).

The nature of data set [1]: Stimulation of soluble guanylate cyclase (sGC) using baculovirus expressed and partially purified bovine sGC at 1 uM concentration relative to benzydamine.
For data set [2], the species on record is Homo sapiens. Briefly: Percent inhibition of collagen stimulated platelet aggregation at a concentration of 10 uM. It is filed as functional.
The test system of data set [3] is Rattus norvegicus. Briefly: Area under curve at the dose of 2 mg/Kg administered perorally in rats. In kind it is ADME, organism-based. The following applies: in vivo, po.
Data set [4] in a line: Cmax at the dose of 2 mg/Kg administered perorally in rats. It is filed as ADME, organism-based. Details: dose 2 mg/Kg, route oral. The following applies: rat, in vivo, po.
Data set [5] is filed under the species Homo sapiens. Briefly: Concentration required to inhibit collagen induced platelet aggregation by 50%. In kind it is functional, organism-based.
Data set [6] can be described thus: Bioavailability in rat (dose 2 mg/kg p.o.). In kind it is ADME, organism-based. The following applies: in vivo, po.
Data set [7] in a line: Tmax at the dose of 2 mg/Kg administered perorally in rats. In kind it is ADME, organism-based. The following applies: rat, in vivo, po.
In data set [8] the target is Soluble guanylate cyclase (Homo sapiens, UniProt O75343+P33402+Q02108+Q02153). Briefly: The cGMP produced by compound was expressed as a ratio between the percentage of the DEA/NO response for the compound. In kind it is protein-complex assay.
Data set [9] in a line: Tmax at the dose of 5 mg/Kg administered perorally in rats. It is filed as ADME, organism-based. The following applies: rat, in vivo, po.
A short description of data set [10]: Percent bioavailability at the dose of 5 mg/Kg administered perorally in rats. In kind it is ADME, organism-based. The following applies: rat, in vivo, po.
Data set [11] in a line: Cmax at the dose of 5 mg/Kg administered perorally in rats. It is filed as ADME, organism-based. Set-up: dose 5 mg/Kg, route oral. The following applies: rat, in vivo, po.
Data set [12] relates to Rattus norvegicus. Briefly: Area under curve at the dose of 5 mg/Kg administered perorally in rats. The following applies: in vivo, po. In kind it is ADME, organism-based.

By inhibition is commonly meant how much of the control response was suppressed. A high value points to strong suppression. One may read the AUC as concentration integrated over time. Read a low AUC as less exposure. What is called Cmax is the maximum level reached in the sampled fluid or tissue. Usually IC50 stands for the midpoint of a concentration-inhibition curve. Low values mean inhibition by little substance, high ones a need for much substance. By bioavailability is commonly meant dose-corrected exposure relative to a reference, in per cent. By Tmax is commonly meant the time from dosing to the highest level. The term EC50 denotes the midpoint of the concentration-response curve.

Sequence of Soluble guanylate cyclase (Q02153 whole entry): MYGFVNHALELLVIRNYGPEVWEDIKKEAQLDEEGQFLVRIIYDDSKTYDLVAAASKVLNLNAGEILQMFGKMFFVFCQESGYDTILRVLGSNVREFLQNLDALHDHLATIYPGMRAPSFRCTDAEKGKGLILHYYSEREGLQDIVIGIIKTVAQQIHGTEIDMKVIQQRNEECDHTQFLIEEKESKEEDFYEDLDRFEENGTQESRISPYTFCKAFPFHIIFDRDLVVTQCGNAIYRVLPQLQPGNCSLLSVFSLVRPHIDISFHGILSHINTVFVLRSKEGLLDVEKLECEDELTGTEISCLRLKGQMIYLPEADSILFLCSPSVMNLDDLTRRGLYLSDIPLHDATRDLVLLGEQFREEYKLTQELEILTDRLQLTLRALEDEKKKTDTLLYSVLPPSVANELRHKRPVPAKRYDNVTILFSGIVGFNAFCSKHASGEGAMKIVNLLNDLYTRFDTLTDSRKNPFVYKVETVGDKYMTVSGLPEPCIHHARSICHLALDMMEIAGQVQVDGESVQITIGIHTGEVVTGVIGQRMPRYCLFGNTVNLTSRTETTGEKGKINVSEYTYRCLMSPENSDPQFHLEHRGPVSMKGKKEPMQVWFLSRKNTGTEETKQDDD
Sequence of Soluble guanylate cyclase (O75343 whole entry): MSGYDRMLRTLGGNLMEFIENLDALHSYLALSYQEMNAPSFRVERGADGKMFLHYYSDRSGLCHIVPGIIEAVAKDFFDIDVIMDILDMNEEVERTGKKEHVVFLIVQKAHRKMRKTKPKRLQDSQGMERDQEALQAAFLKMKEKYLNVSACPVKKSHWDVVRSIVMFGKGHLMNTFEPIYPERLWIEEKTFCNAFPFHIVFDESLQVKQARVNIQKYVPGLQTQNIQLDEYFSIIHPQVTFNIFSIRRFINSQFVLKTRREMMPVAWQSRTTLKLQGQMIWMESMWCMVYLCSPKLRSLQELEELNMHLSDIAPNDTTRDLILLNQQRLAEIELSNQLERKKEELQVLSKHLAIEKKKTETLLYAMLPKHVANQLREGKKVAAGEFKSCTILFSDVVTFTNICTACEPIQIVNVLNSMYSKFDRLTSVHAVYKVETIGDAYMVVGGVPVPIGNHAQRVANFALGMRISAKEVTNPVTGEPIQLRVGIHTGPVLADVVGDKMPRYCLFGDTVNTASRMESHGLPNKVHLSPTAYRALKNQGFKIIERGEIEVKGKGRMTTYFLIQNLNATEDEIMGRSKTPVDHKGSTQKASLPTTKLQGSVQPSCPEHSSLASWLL
Sequence of Soluble guanylate cyclase (P33402 whole entry): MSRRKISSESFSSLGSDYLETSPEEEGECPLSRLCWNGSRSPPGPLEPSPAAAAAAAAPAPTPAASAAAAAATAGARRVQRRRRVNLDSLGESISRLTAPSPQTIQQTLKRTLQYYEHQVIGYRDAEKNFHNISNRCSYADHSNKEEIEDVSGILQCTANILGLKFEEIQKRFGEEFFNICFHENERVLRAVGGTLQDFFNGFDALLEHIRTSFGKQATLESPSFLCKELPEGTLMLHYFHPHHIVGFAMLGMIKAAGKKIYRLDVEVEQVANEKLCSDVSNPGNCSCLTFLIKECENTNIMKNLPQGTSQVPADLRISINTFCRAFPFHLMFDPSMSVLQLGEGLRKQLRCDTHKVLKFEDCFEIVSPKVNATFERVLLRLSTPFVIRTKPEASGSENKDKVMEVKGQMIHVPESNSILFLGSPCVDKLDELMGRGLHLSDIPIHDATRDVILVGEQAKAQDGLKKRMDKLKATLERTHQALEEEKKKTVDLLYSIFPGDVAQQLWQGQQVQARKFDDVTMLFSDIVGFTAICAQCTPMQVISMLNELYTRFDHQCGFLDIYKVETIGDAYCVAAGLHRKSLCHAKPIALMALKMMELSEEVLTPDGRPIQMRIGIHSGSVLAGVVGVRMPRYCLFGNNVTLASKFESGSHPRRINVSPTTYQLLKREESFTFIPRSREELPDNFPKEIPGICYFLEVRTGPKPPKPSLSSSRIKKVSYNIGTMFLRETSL
Sequence of Soluble guanylate cyclase (Q02108 whole entry): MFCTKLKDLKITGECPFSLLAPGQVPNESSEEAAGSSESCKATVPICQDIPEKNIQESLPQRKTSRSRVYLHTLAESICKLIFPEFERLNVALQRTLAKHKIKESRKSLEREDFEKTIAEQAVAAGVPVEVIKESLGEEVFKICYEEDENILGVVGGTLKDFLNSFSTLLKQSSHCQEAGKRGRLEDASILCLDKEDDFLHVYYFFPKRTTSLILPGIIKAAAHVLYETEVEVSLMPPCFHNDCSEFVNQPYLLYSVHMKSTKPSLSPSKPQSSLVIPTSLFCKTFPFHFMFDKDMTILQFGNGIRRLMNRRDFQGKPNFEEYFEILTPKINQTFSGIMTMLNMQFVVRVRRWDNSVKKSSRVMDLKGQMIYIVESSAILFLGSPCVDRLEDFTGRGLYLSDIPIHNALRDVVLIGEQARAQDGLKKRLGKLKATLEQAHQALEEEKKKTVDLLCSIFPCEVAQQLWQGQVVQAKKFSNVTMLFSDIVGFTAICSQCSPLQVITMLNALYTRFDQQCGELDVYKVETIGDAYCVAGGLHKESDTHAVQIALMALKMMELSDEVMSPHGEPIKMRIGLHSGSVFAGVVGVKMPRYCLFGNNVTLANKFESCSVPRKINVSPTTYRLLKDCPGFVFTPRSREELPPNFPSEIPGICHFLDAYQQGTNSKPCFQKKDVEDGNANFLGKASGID

The compound `CN(C)CCCOc1cc(C(=O)Nc2ccc3[nH]ccc3c2)n(Cc2ccccc2)n1` displayed a Relative enzyme activity in data set [1] of 0.91. In the data set listed under Homo sapiens [2], this compound displayed an inhibition at 10 µM of 66%.
The compound `COc1ccc(-c2ccccc2)cc1NC(=O)c1cc(OCCCN(C)C)nn1Cc1ccccc1` returned an AUC in the data set on Rattus norvegicus [3] of 130 ng·h/mL. In data set [4], this compound returned a maximum concentration (Cmax) of 18 ng/mL. This compound displayed a Relative enzyme activity in data set [1] of 0.86. Also, the half-maximal inhibitory concentration (IC50) in the data set filed under Homo sapiens [5] stood at 2760 nM. This compound showed a bioavailability in data set [6] of 22%. Moreover, testing at 10 µM in the data set listed under Homo sapiens [2] gave an inhibition of 95%. Besides, the Tmax in data set [7] was found to be 7.3 h.
Turning to `CN(C)CCCOc1cc(C(=O)Nc2ccc(-c3csnn3)cc2)n(Cc2ccccc2)n1`, the Relative enzyme activity in data set [1] was 0.81. The inhibition at 10 µM in the data set listed under Homo sapiens [2] was found to be 96%.
The compound `CN(C)CCCOc1cc(C(=O)Nc2ccccc2F)n(Cc2ccccc2)n1` showed a Relative enzyme activity in [1] of 1.02. In addition, 10 µM produced 58% inhibition in the data set listed under Homo sapiens [2].
Consider `CN(C)CCCOc1cc(C(=O)Nc2cnc3ccccc3c2)n(Cc2ccccc2)n1`, for which the AUC in the data set on Rattus norvegicus [3] was found to be 95 ng·h/mL. The compound further had a peak concentration (Cmax) in data set [4] of 14.3 ng/mL. This compound also gave a Relative enzyme activity in [1] of 0.91. The half-inhibitory concentration (IC50) in the data set filed under Homo sapiens [5] was determined as 3270 nM. Moreover, the bioavailability in [6] turned out to be 19%. In the data set listed under Homo sapiens [2], this compound gave an inhibition at 10 µM of 95%. Moreover, in data set [7], the Tmax turned out to be 5 h.
As for `CN(C)CCCOc1cc(C(=O)Nc2ccc(Cl)cc2F)n(Cc2ccccc2)n1`, the Relative enzyme activity in data set [1] is 0.91. For the same compound, at 10 µM the inhibition in the data set filed under Homo sapiens [2] was 96%.
Consider `CN(C)CCCOc1cc(C(=O)Nc2cc(F)cc(C(F)(F)F)c2)n(Cc2ccccc2)n1`, for which the Relative enzyme activity in data set [1] is 0.9. Moreover, testing at 10 µM in the data set filed under Homo sapiens [2] gave an inhibition of 43%.
In turn, `CN(C)CCCOc1cc(C(=O)Nc2ccc(Br)cc2)n(Cc2ccccc2)n1` yielded an AUC in the data set with Rattus norvegicus [3] of 76.9 ng·h/mL. In [4], this compound yielded a Cmax of 12.1 ng/mL. This compound also came in with a Relative enzyme activity in data set [1] of 0.87. Besides, in the data set listed under Homo sapiens [5], it took 3580 nM to reach half-maximal inhibition (IC50). In data set [6], this compound came in with a bioavailability of 17%. For the same compound, the inhibition at 10 µM in the data set listed under Homo sapiens [2] came to 90%. Also, in data set [7], the Tmax worked out at 5 h.
Take `CN(C)CCCOc1nn(Cc2ccccc2)c2ccccc12` [BENZYDAMINE]: the EC50 in [8] came to 1020 nM.
`CN(C)CCCOc1cc(C(=O)Nc2ccc3c(c2)C(=O)N(C)C3=O)n(Cc2ccccc2)n1` showed a Relative enzyme activity in data set [1] of 0.81. This compound showed an inhibition at 10 µM in the data set filed under Homo sapiens [2] of 64%.
Turning to `COc1ccc(NC(=O)c2cc(OCCCN(C)C)nn2Cc2ccccc2)cc1`, in data set [9], the Tmax was determined as 2.7 h. Further, the bioavailability in data set [10] was found to be 12%. The Relative enzyme activity in [1] amounted to 1.1. The same compound came in with a maximum concentration (Cmax) in [11] of 6.4 ng/mL. The compound also showed an AUC with Rattus norvegicus [12] of 61.1 ng·h/mL. The compound further displayed a half-inhibitory concentration (IC50) in the data set filed under Homo sapiens [5] of 2840 nM. Besides, at 10 µM the inhibition in the data set filed under Homo sapiens [2] was 83%.
`COc1cc(NC(=O)c2cc(OCCCN(C)C)nn2Cc2ccccc2)cc(OC)c1OC`: in data set [1], the Relative enzyme activity worked out at 0.96. For the same compound, in the data set filed under Homo sapiens [2], the inhibition at 10 µM amounted to 66%.
In turn, `COc1cc(NC(=O)c2cc(OCCCN(C)C)nn2Cc2ccccc2)cc(OC)c1` had a Relative enzyme activity in [1] of 0.72. This compound also returned an inhibition at 10 µM in the data set filed under Homo sapiens [2] of 87%.
`CN(C)CCCOc1cc(C(=O)Nc2nccs2)n(Cc2ccccc2)n1` yielded a Relative enzyme activity in data set [1] of 1.06. For the same compound, the inhibition at 10 µM in the data set listed under Homo sapiens [2] was 27%.
In data set [1], `CN(C)CCCOc1cc(C(=O)Nc2nccc3ccccc23)n(Cc2ccccc2)n1` had a Relative enzyme activity of 1.31. The same compound yielded an inhibition at 10 µM in the data set listed under Homo sapiens [2] of 80%.
Turning to `CN(C)CCCOc1cc(C(=O)Nc2nc3ccccc3[nH]2)n(Cc2ccccc2)n1`, the Relative enzyme activity in data set [1] was 0.74. This compound registered an inhibition at 10 µM in the data set listed under Homo sapiens [2] of 13%.
In the case of `CN(C)CCCOc1cc(C(=O)Nc2ccn(-c3ccccc3)n2)n(Cc2ccccc2)n1`, in data set [1], the Relative enzyme activity stood at 0.71. Also, the inhibition at 10 µM in the data set listed under Homo sapiens [2] amounted to 75%.
For `COc1ccc(NC(=O)c2cc(OCCCN(C)C)nn2Cc2ccccc2)cc1Cl`, the AUC in the data set on Rattus norvegicus [3] turned out to be 32.6 ng·h/mL. Moreover, the highest concentration (Cmax) in [4] is 5.4 ng/mL. In [1], the Relative enzyme activity stood at 0.88. This compound registered an IC50 in the data set filed under Homo sapiens [5] of 2630 nM. Also, the bioavailability in data set [6] amounted to 11%. Besides, the inhibition at 10 µM in the data set listed under Homo sapiens [2] was determined as 93%. For the same compound, the Tmax in data set [7] stood at 4.5 h.
In turn, `CN(C)CCCOc1cc(C(=O)Nc2nc3c(s2)CCCC3)n(Cc2ccccc2)n1` yielded a Relative enzyme activity in [1] of 0.85. The compound further had an inhibition at 10 µM in the data set filed under Homo sapiens [2] of 92%.
`CN(C)CCCOc1cc(C(=O)Nc2ccc(OC(F)(F)F)cc2)n(Cc2ccccc2)n1`: the Relative enzyme activity in data set [1] was 0.93. Further, the inhibition at 10 µM in the data set filed under Homo sapiens [2] was 85%.
For the compound `CN(C)CCCOc1cc(C(=O)Nc2cccc(F)c2)n(Cc2ccccc2)n1`, in data set [1], the Relative enzyme activity is 0.87. For the same compound, the inhibition at 10 µM in the data set listed under Homo sapiens [2] was determined as 95%.
Turning to `CN(C)CCCOc1cc(C(=O)Nc2cccc(-c3cnco3)c2)n(Cc2ccccc2)n1`, the Relative enzyme activity in data set [1] turned out to be 0.71. This compound came in with an inhibition at 10 µM in the data set listed under Homo sapiens [2] of 83%.
For the compound `CN(C)CCCOc1cc(C(=O)Nc2ccc3ccccc3n2)n(Cc2ccccc2)n1`, in data set [1], the Relative enzyme activity was determined as 0.97. This compound showed an inhibition at 10 µM in the data set filed under Homo sapiens [2] of 57%.
With `COc1cccc(NC(=O)c2cc(OCCCN(C)C)nn2Cc2ccccc2)c1`, in data set [1], the Relative enzyme activity stood at 0.74. In the data set listed under Homo sapiens [2], this compound had an inhibition at 10 µM of 96%.
On the same counts, the results for `CN(C)CCCOc1cc(C(=O)Nc2cc(F)cc(F)c2)n(Cc2ccccc2)n1` are 0.76 and 44%.
The matching figures for `CN(C)CCCOc1cc(C(=O)Nc2cccc(Cl)c2)n(Cc2ccccc2)n1`: 0.93 and 95%.
